system: WA09 hESCs; experiment: Random forest prediction of teratogenicity from metabolomics of spent media of dosed hESCs; type: cell-based, human; settings: 18-feature model, 26 drug treatment experiments
Experimental: WA09 hESCs, obtained from WiCell Research Institute (NIH National Stem Cell Bank, Madison, Wis.) were cultured in 6-well plates on Matrigel (BD Biosciences, San Jose, Calif.), in mTeSR1 medium (Stem Cell Technologies, Vancouver, BC) incubated at 37° C. under 5% CO2 in a Thermo Electron Form a Series II Water Jacket CO2 Incubator. hESCs were passaged every three or four days at a 1:3 or 1:6 seeding density for routine culture conditions. For dosing experiments, hESCs were passaged at a low density of 1:10 or 1:12 so that they would not require passaging during the […] dosing protocol. To passage hES cells, the StemPro® EZPassage™ disposable stem cell passaging tool (Invitrogen, Carlsbad, Calif.) was used to detach the cells from the wells. Detached cells were removed with a pipette and distributed to new Matrigel plates.
These medium controls provided baseline mass spectral data.
The 2.5 mL of spent media per well from Example 1 was added to 1.67 mL acetonitrile to make a 40% acetonitrile solution. The acetonitrile acts to “quench” the spent media sample, slowing or halting many metabolic processes and aiding in precipitation of cellular proteins. Samples were either stored at −80° C. for later analysis, or for immediate analysis, 250 μL of the quenched solution was mixed with 250 μL of water, to a final concentration of 20% acetonitrile, then added to a 3 kDa molecular weight cut-off filter spin column (Microcon YM-3 Centrifugal Filter, Millipore, Billerica, Mass.). Each sample was then centrifuged in an IEC CL31R Multispeed Centrifuge (Thermo Scientific, Waltham, Mass.) at 13,000×g at 4° C. for 200 minutes. Following centrifugation, the flow-through was saved then dried for several hours in a Savant High Capacity Speedvac Plus Concentrator. The concentrated sample was then dissolved in 50 μL of 0.1% formic acid prior to LC-MS analysis.
5 μl of each sample was injected.
Following LC-MS, chromatograms were inspected for reproducibility. LC-MS runs with total ion counts that vary by more than 25% were repeated to ensure that samples could be accurately compared. These runs were then used to create mass features that correspond to molecules detected across the different LC-MS runs. Mass features were extracted from the LC-MS data using MassHunter Qualitative Analysis software (Agilent Technologies). The following criteria were used as general guidelines, however some flexibility and optimization was needed. m/z values within the range of 75-1500, with a charge of +1 or −1, and a centroid height greater than 1000 were used to generate “mass features.” The mass peaks that pass these criteria were used to fit isotope and adduct (Na^+, K^+, and NH4^+) patterns corresponding to individual molecules, and to establish the abundance of each mass feature. The abundance is calculated by MassHunter software as the sum of the isotopic and adduct peaks that correspond to a single molecular feature. After data deconvolution, mass features showing at least two ions (e.g. (M^+H)^+ and (M^+H)^++1 or (M^+H)^+ and (M^+Na)^+) and an abundance value greater than 50000 for positive-ion mode data and 10000 in negative-ion mode data were included in the data set used for binning of the mass features.
Following feature selection by MassHunter, the data was further preprocessed by MassProfiler (Agilent) software which aligns mass features across multiple LC-MS data files. Mass features were generated for data from each drug treatment experiment (dosed and control) using the default alignment settings in MassProfiler with the requirement that a feature be present in at least 80% of the samples in one treatment. The mass feature datasets for each drug treatment experiment were further processed in a global manner using custom analysis scripts executed in the R statistical software environment. […]

Compound	Classification by the refined random forest model (FIG. 3)
CC1=C(/C=C/C(C)=C/C=C/C(C)=C\C(=O)O)C(C)(C)CCC1 [Accutane]	misclassified as non-teratogens

same assay, conditions: blind study; model trained on TS1, 142 mass features; circulating dose

Compound	Predicted teratogenicity (random forest statistical model)
CC1=C(/C=C/C(C)=C/C=C/C(C)=C\C(=O)O)C(C)(C)CCC1 [Accutane]	Non
CCCCc1oc2ccccc2c1C(=O)c1cc(I)c(OCCN(CC)CC)c(I)c1 [Amiodarone]	Ter

system: hESCs; experiment: Arginine / ADMA fold change ratio (integrated EICs) in dosed hESCs vs controls; settings: not given
Experimental: All tested chemicals were purchased from Sigma-Aldrich (St. Louis, Mo.). Cells were dosed with drugs at a concentration equivalent to their published serum circulating therapeutic dosages. Dosing was performed on hESCs in 6-well plates in triplicate, i.e. three wells per plate. The plates were dosed in triplicate, so there were a total of nine dosed wells. In parallel, there were nine “control” wells, in which hESCs were cultured with mTeSR1 containing no drug, and three wells containing Matrigel with mTeSR1 medium without hESCs that served as medium controls. Lastly, three wells of dosed medium controls were prepared, containing Matrigel, mTeSR1 and drug, but no hESCs (FIG. 1). These medium controls provided baseline mass spectral data. On the first day of dosage, the determined concentration of drug was dissolved in mTeSR1, and then 2.5 mL of this solution was added to each dosed well of hESCs. Each day, for four days, the medium was removed and new dosed medium was added. On the fourth day, the medium was removed and added to acetonitrile to make a 40% acetonitrile solution, as outlined in the Sample Preparation section below.
Mass spectrometry was performed using an Agilent QTOF LC/MS system consisting of a G6520AA QTOF high resolution mass spectrometer capable of exact mass MS and MS/MS. In order to facilitate separation of small molecules with a wide range of polarity and to allow increased retention of hydrophilic species, Hydrophilic Interaction Liquid Chromatography (Alpert 1990) was employed. Each sample was run for 30 minutes with the gradient shown in Table 3 at a flow rate of 0.5 mL/min, using 0.1% formic acid in water (Solvent A) and 0.1% formic acid in acetonitrile (Solvent B). Electrospray ionization was employed using a dual ESI source, with an Agilent isocratic pump continuously delivering an internal mass reference solution into the source at approx. 0.01 mL/min. The mass range of the instrument was set to 100-1700 Da. A Phenomenex Luna HILIC column with dimensions 3×100 mm 3 μm particle size was used and maintained at 30° C. 5 μl of each sample was injected. Data acquisition was performed with Agilent MassHunter using high-resolution exact mass conditions.
Valproate is known to cause neural tube defects (DiLiberti et al. 1984) while nitric oxide synthase activity is essential for neural tube closure (Nachmany et al. 2006).

Compound	Arg/ADMA Prediction	Outcome of the Arg/ADMA metrics for teratogenicity
CC1=C(/C=C/C(C)=C/C=C/C(C)=C/C(=O)O)C(C)(C)CCC1 [Retinoic Acid]	Ter	–
CC1=C(/C=C/C(C)=C/C=C/C(C)=C\C(=O)O)C(C)(C)CCC1 [Accutane]	Ter	–
O=C1O[C@H]([C@@H](O)CO)C(O)=C1O [Ascorbic Acid]	Ter	false positives for teratogenicity
CCCCc1oc2ccccc2c1C(=O)c1cc(I)c(OCCN(CC)CC)c(I)c1 [Amiodarone]	Ter	–

same assay, conditions: EIC areas, controls vs. dosed

Compound	Arg fold change/ADMA fold change
Nc1nc2ncc(CNc3ccc(C(=O)N[C@@H](CCC(=O)O)C(=O)O)cc3)nc2c(=O)[nH]1 [Folic Acid]	1.08
CC(=O)Oc1ccccc1C(=O)O [Aspirin]	1.07
CC1=C(/C=C/C(C)=C/C=C/C(C)=C/C(=O)O)C(C)(C)CCC1 [Retinoic Acid]	0.48
NNC(=O)c1ccncc1 [Isoniazid]	0.94
N[C@@H](Cc1cc(I)c(Oc2cc(I)c(O)c(I)c2)c(I)c1)C(=O)O [Levothyroxine]	1.03
CC1=C(/C=C/C(C)=C/C=C/C(C)=C\C(=O)O)C(C)(C)CCC1 [Accutane]	0.55
CC1(C)S[C@@H]2[C@H](NC(=O)Cc3ccccc3)C(=O)N2[C@H]1C(=O)O [Penicillin G]	0.96
O=C1O[C@H]([C@@H](O)CO)C(O)=C1O [Ascorbic Acid]	1.28
CCCCc1oc2ccccc2c1C(=O)c1cc(I)c(OCCN(CC)CC)c(I)c1 [Amiodarone]	1.64

same assay, conditions: from fold change ratio

Compound	Arg/ADMA Prediction
N[C@@H](Cc1cc(I)c(Oc2cc(I)c(O)c(I)c2)c(I)c1)C(=O)O [Levothyroxine]	Non (Smaller fold change ratios (between 0.9 and 1.1) show a good correlation with non-teratogens)
CC1(C)S[C@@H]2[C@H](NC(=O)Cc3ccccc3)C(=O)N2[C@H]1C(=O)O [Penicillin G]	Non (Smaller fold change ratios (between 0.9 and 1.1) show a good correlation with non-teratogens)

system: WA09 human embryonic stem (hES) cells; experiment: PLS-DA prediction of teratogenicity from secretome of treated hES cells (Example 9); settings: DevTox pharmaceutical, high dose (H = 10x circulating dose)
Description: These included 11 known teratogens and 11 known non-teratogens. The current model is based on the mean fold change (treatment versus its associated intra-experimental control) of 15 metabolites common among the secretome of hES cells treated with pharmaceutical agents and unknown chemical compounds.

Compound	% Non (PLS-DA class probability non-teratogen)	% Ter (PLS-DA class probability teratogen)	Confidence (difference between class probabilities)	Prediction
O=C1NS(=O)(=O)c2ccccc21 [Saccharin]	0.8	0.2	0.6	Non
CCCC(CCC)C(=O)O [VPA]	0.34	0.66	0.32	Ter
Nc1nc2ncc(CNc3ccc(C(=O)N[C@@H](CCC(=O)O)C(=O)O)cc3)nc2c(=O)[nH]1 [Folic Acid]	0.59	0.41	0.18	Non
CC1(C)S[C@@H]2[C@H](NC(=O)Cc3ccccc3)C(=O)N2[C@H]1C(=O)O [PenicillinG]	0.57	0.43	0.14	Non
Cn1c(=O)c2c(ncn2C)n(C)c1=O [Caffeine]	0.53	0.47	0.06	–
CN(C)CCOC(c1ccccc1)c1ccccc1 [Diphenhydramine]	0.73	0.27	0.46	Non
NNC(=O)c1ccncc1 [Isoniazid]	0.59	0.41	0.18	Non
N[C@@H](Cc1cc(I)c(Oc2cc(I)c(O)c(I)c2)c(I)c1)C(=O)O [Levothyroxine]	0.59	0.41	0.18	Non
CC1=C(/C=C/C(C)=C/C=C/C(C)=C\C(=O)O)C(C)(C)CCC1 [Accutane]	0.3	0.7	0.4	Ter
O=C1O[C@H]([C@@H](O)CO)C(O)=C1O [Ascorbic Acid]	0.57	0.43	0.14	Non
CC1=C(/C=C/C(C)=C/C=C/C(C)=C/C(=O)O)C(C)(C)CCC1 [RetinoicAcid]	0.3	0.7	0.4	Ter

same assay, conditions: DevTox pharmaceutical, low dose (L = 0.1x circulating dose)

Compound	% Non (PLS-DA class probability non-teratogen)	% Ter (PLS-DA class probability teratogen)	Confidence (difference between class probabilities)	Prediction
O=C1NS(=O)(=O)c2ccccc21 [Saccharin]	0.75	0.25	0.5	Non
CCCC(CCC)C(=O)O [VPA]	0.43	0.57	0.14	Ter
Nc1nc2ncc(CNc3ccc(C(=O)N[C@@H](CCC(=O)O)C(=O)O)cc3)nc2c(=O)[nH]1 [Folic Acid]	0.59	0.41	0.18	Non
CC1(C)S[C@@H]2[C@H](NC(=O)Cc3ccccc3)C(=O)N2[C@H]1C(=O)O [PenicillinG]	0.55	0.45	0.1	Non
Cn1c(=O)c2c(ncn2C)n(C)c1=O [Caffeine]	0.58	0.42	0.16	–
CN(C)CCOC(c1ccccc1)c1ccccc1 [Diphenhydramine]	0.76	0.24	0.52	Non
NNC(=O)c1ccncc1 [Isoniazid]	0.76	0.24	0.52	Non
N[C@@H](Cc1cc(I)c(Oc2cc(I)c(O)c(I)c2)c(I)c1)C(=O)O [Levothyroxine]	0.69	0.31	0.38	Non
CC1=C(/C=C/C(C)=C/C=C/C(C)=C\C(=O)O)C(C)(C)CCC1 [Accutane]	0.33	0.67	0.34	Ter
O=C1O[C@H]([C@@H](O)CO)C(O)=C1O [Ascorbic Acid]	0.57	0.43	0.14	Non
CC1=C(/C=C/C(C)=C/C=C/C(C)=C/C(=O)O)C(C)(C)CCC1 [RetinoicAcid]	0.3	0.7	0.4	Ter

Source: patent US8703424B2, “Predicting human developmental toxicity of pharmaceuticals using human stem-like cells and metabolomics” (Stemina Biomarker Discovery, Inc., priority 2010, dated 2014)
